For 1 compound, melting point results are on record in patent publication US20040063738A1, “Substituted heterocyclic phthalic acid diamide arthropodicides” (priority 2003, published 2004).

One may read the melting point as the temperature of the solid-liquid transition. `CC(C)NC(=O)c1c(I)cccc1C(=O)Nc1ccc(OCC(F)(F)F)nc1` [Compound 1, 3-iodo-N^2-(1-methylethyl)-N^1-[6-(2,2,2-trifluoroethoxy)-3-pyridinyl]-1,2-benzenedicarboxamide] returned a melting point of 220 to 225 °C.
